Assay [1] concerns the target Neuronal acetylcholine receptor; alpha6/beta2 (Homo sapiens, UniProt P17787+Q15825). Nature of the assay: Inhibition of alpha6beta2 nAChR. In kind it is protein-complex assay.
Assay [2] addresses Neuronal acetylcholine receptor; alpha3/beta2 (Homo sapiens, UniProt P17787+P32297). Nature of the assay: Inhibition of alpha3beta2 nAChR. In kind it is protein-complex assay.
A short description of assay [3]: Selectivity ratio of IC50 for alpha6beta2 nAChR to IC50 for alpha3beta2 nAChR.
For assay [4], the species on record is Macaca mulatta. Nature of the assay: Binding affinity to monkey alpha-6-(non-alpha-4)-beta-2 nAChR.
For assay [5], the species on record is Macaca mulatta. The assay is described as follows: Binding affinity to monkey alpha-6-alpha-4-beta-2 nAChR.
The species entered for assay [6] is Macaca mulatta. The assay is described as follows: Selectivity ratio of monkey alpha-6-alpha-4-beta-2 nAChR over monkey alpha-6-(non-alpha-4)-beta-2 nAChR.
Assay [7] can be described thus: Selectivity for alpha3beta2 nAChR over alpha6beta2 nAChR.

Residues, ends and D or L forms follow the SMILES beside them.

Sequence of Neuronal acetylcholine receptor; alpha3/beta2 (P17787 whole entry): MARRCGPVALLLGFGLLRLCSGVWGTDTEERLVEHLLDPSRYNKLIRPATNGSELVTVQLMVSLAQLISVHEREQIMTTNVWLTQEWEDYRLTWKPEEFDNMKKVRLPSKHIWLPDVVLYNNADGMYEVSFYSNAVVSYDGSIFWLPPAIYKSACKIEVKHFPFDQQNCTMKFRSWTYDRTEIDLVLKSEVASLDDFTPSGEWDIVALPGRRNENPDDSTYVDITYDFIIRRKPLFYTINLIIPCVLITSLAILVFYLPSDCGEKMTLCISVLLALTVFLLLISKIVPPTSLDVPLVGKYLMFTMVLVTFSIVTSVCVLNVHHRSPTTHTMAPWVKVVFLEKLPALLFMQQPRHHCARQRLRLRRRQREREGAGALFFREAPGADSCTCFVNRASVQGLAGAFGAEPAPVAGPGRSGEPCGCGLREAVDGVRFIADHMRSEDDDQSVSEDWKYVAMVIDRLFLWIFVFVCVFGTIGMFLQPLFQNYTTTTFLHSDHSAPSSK
Sequence of Neuronal acetylcholine receptor; alpha3/beta2 (P32297 whole entry): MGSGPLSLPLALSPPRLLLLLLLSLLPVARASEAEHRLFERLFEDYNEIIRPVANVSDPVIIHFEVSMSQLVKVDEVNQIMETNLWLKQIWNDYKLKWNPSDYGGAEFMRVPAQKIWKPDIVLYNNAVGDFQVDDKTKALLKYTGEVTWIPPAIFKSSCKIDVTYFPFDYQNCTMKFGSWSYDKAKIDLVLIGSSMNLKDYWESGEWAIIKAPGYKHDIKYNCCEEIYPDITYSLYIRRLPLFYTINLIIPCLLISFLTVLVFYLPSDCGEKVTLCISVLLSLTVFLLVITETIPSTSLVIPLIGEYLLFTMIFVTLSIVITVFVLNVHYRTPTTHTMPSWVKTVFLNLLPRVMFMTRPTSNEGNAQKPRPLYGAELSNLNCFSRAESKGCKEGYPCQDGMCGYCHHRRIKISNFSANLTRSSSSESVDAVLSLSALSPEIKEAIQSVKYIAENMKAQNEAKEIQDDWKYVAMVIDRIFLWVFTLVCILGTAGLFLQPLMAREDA
Sequence of Neuronal acetylcholine receptor; alpha6/beta2 (P17787 whole entry): as the sequence (P17787 whole entry) above
Sequence of Neuronal acetylcholine receptor; alpha6/beta2 (Q15825 whole entry): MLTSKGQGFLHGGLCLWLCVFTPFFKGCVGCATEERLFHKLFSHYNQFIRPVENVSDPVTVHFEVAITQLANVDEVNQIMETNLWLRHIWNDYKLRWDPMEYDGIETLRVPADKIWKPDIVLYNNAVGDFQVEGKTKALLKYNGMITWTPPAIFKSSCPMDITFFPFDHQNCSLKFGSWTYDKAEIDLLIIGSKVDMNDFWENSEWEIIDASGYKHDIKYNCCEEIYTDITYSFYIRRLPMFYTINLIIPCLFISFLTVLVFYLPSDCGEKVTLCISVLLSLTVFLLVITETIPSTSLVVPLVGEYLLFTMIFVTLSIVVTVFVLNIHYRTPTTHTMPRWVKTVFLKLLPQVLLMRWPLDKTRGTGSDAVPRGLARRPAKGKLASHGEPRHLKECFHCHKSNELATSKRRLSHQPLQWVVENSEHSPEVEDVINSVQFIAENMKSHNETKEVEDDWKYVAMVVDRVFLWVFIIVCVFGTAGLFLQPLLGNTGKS

On to `CC(C)C[C@H](NC(=O)[C@H](CC(N)=O)NC(=O)[C@H](CO)NC(=O)[C@H](Cc1cnc[nH]1)NC(=O)[C@H](CCC(=O)O)NC(=O)[C@H](CC(C)C)NC(=O)[C@H](Cc1cnc[nH]1)NC(=O)[C@H](CS)NC(=O)[C@@H](NC(=O)[C@@H]1CCCN1C(=O)[C@H](CC(N)=O)NC(=O)[C@H](CO)NC(=O)[C@H](CS)NC(=O)[C@H](CS)NC(=O)CN)C(C)C)C(=O)N[C@@H](CS)C(=O)O`, for which the IC50 (as a rule, the concentration needed to halve the response being measured) turned out to be 0.39 nM in assay [1] and 0.5 nM in assay [2].

For `CC[C@H](C)[C@H](NC(=O)[C@H](Cc1cnc[nH]1)NC(=O)[C@H](CCC(N)=O)NC(=O)[C@H](CC(N)=O)NC(=O)[C@H](CC(N)=O)NC(=O)CNC(=O)[C@H](C)NC(=O)[C@H](CS)NC(=O)[C@H](C)NC(=O)[C@@H]1CCCN1C(=O)[C@H](Cc1cnc[nH]1)NC(=O)[C@H](CO)NC(=O)[C@H](CS)NC(=O)[C@H](CS)NC(=O)CN)C(=O)N[C@@H](CS)C(=O)O`, in assay [3], the Ratio IC50 came out at 0.4. Besides, the values for the IC50 in assay [1] and in assay [2] were 3 nM and 1.1 nM, respectively.

Take `CC(C)C[C@H](NC(=O)[C@H](Cc1cnc[nH]1)NC(=O)[C@H](CS)NC(=O)[C@@H](NC(=O)[C@@H]1CCCN1C(=O)[C@H](CC(N)=O)NC(=O)[C@H](CO)NC(=O)[C@H](CS)NC(=O)[C@H](CS)NC(=O)CN)C(C)C)C(=O)N[C@@H](C)C(=O)N[C@@H](Cc1cnc[nH]1)C(=O)N[C@@H](CO)C(=O)N[C@@H](CC(N)=O)C(=O)N[C@@H](CC(C)C)C(=O)N[C@@H](CS)C(=O)O` (H-GCCSNPVCHLAHSNLC-OH): the Activity was determined as 9.7 fM in the assay filed under Macaca mulatta [4] and 51 pM in the assay filed under Macaca mulatta [5]. In addition, the Ratio IC50 in assay [3] is 54.5. The Selectivity ratio in the assay listed under Macaca mulatta [6] was determined as 5300. Besides, the IC50 in assay [1] turned out to be 0.16 nM; in assay [2] it was 8.72 nM.

`CC[C@H](C)[C@H](NC(=O)[C@H](CCC(N)=O)NC(=O)[C@@H]1CCCN1C(=O)[C@H](CC(N)=O)NC(=O)[C@H](Cc1cnc[nH]1)NC(=O)[C@@H](NC(=O)[C@@H](NC(=O)[C@H](CS)NC(=O)[C@@H](NC(=O)[C@@H]1CCCN1C(=O)[C@H](CC(N)=O)NC(=O)[C@H](CO)NC(=O)[C@H](CS)NC(=O)[C@H](CS)NC(=O)[C@@H]1CCCN1C(=O)[C@H](CC(=O)O)NC(=O)[C@@H](N)CCCNC(=N)N)C(C)C)[C@@H](C)O)C(C)C)C(=O)N[C@@H](CS)C(=O)O` (H-RDPCCSNPVCTVHNPQIC-OH): the Ratio IC50 in assay [3] was determined as 78.1. Besides, the IC50 in assay [1] amounted to 0.95 nM; in assay [2], 74.2 nM. Moreover, the Selectivity ratio in assay [7] was 75.
